Here are results for 14 compounds from US5290790A, “4-(4-imidazolyl) piperidines substituted at position 1, their preparation and also their therapeutic applications” (National De La Sante et De La Recherche Medicale, priority 1990, dated 1994).

Assay [1] deals with T1, H3 histaminergic receptors (Rattus norvegicus, UniProt Q9QYN8). The assay can be described thus: Reversal by H3 antagonists of exogenous histamine-induced inhibition of histamine release in sections of rat cerebral cortex (Arrang et al.). Type of assay: biochemical. The source says: This method employs sections of rat cerebral cortex, and made possible the pharmacological characterisation of the H3 receptors (Nature, 1987, 327; 117-123).
This effect is progressively reversed in the presence of H3 antagonists such as the compounds of the invention, added at increasing concentrations. […]

The target in assay [2] is T1, H3 histaminergic receptors. The conditions noted are these: histamine at a concentration of 1 μM; cited from earlier work.
[3] abbreviates: read-out: Apparent dissociation constant (Ki) as histamine antagonists at receptors of rat brain, sections of rat cerebral cortex, exogenous histamine 1 μM, apparent Ki calculated from IC50 according to Cheng and Prusoff with histamine EC=0.1 μM.

pKi: −log10 of the molar value. Where a name gives a salt, the structure may show the parent alone. Read-outs that look alike come from different tables or passages of the source.

T1 sequence (Q9QYN8 whole entry): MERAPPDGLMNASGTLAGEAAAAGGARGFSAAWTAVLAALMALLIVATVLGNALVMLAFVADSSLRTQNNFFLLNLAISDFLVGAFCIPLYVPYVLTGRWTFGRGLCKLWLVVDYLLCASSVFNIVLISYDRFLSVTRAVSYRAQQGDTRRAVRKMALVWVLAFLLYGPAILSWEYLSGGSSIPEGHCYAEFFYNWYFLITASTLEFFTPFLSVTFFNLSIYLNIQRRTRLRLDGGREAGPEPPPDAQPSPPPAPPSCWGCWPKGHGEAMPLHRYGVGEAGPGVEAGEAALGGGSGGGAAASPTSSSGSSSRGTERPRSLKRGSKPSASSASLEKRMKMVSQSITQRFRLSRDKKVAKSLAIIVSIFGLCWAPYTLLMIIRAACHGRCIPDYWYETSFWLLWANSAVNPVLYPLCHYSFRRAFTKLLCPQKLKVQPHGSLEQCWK

Turning to `O=C(C1CC1c1ccccc1)N1CCC(c2c[nH]cn2)CC1` (centres unmarked) [Compound 13], the pKi in assay [1] was 7.70.

Consider `CCCCCCC(=O)N1CCC(c2cnc[nH]2)CC1` [Compound 1], for which the pKi in assay [1] was 7.32.

With `O=C(NCCC1CCCCC1)N1CCC(c2c[nH]cn2)CC1` [Compound 77], the pKi in assay [1] was 7.17.

As to `O=C(CC1CCC1)N1CCC(c2c[nH]cn2)CC1` [Compound 20], in assay [1], the pKi is 7.23.

On to `O=C(N1CCC(c2c[nH]cn2)CC1)C12CC3CC(CC(C3)C1)C2` [Compound 8], for which the pKi in assay [1] (setting [3]) was 7.20.

For `O=C(CCCc1cccs1)N1CCC(c2c[nH]cn2)CC1` [Compound 43], the pKi in assay [1] is 7.46.

Regarding `O=C(CCCOc1ccccc1)N1CCC(c2cn(C(=O)Nc3ccc(Cl)cc3Cl)cn2)CC1` [Compound 92, 1-(4-Phenoxybutylryl)-4-[1-(2,4-Dichlorophenylaminocarbonyl)-4-imidazolyl]piperidine], in assay [1] (setting [3]), the pKi was 7.47.

Turning to `OC(=CCCCCCCCCCOc1ccccc1)N1CCC(c2c[nH]cn2)CC1` [Compound 60, 1-(1-Hydroxy-11-phenoxy-1-undecen-1-yl)-4-(4-imidazolyl)piperidine (dihydrochloride)], the negative logarithm of the Ki (pKi) in assay [1] is 6.92.

For `OC(=CCCc1ccccc1)N1CCC(c2c[nH]cn2)CC1` [Compound 59, 1-(1-Hydroxy-4-phenyl-1-buten-1-yl)-4-(4-imidazolyl)piperidine (Dihydrochloride)], the pKi in assay [1] was 7.33.

As to `O=C(CCc1ccccc1)N1CCC(c2c[nH]cn2)CC1` [Compound 38, 1-(3-Phenylpropionyl)-4-(1H-imidazol-4-yl)piperidine (Oxalate)], the pKi in assay [1] is 7.08.

On to `O=C(CC1CC2CCC1C2)N1CCC(c2c[nH]cn2)CC1` (centres unmarked) [Compound 23, 1-(Norbornylmethylcarbonyl)-4-(1H-imidazol-4-yl)piperidine], for which the pKi in assay [1] was 7.64.

With `O=C(CCCCCCc1ccccc1)N1CCC(c2c[nH]cn2)CC1` [Compound 48], the pKi in assay [1] is 7.19.

For `NCCc1c[nH]cn1` [histamine], the “Inhibition of release by exogenous histamine” value in assay [2] is on record as “approximately 50%”.

As to `O=C(NCCCc1ccccc1)N1CCC(c2c[nH]cn2)CC1` [Compound 83], the pKi in assay [1] is 7.11.
